Some results are limits rather than exact numbers.

The target of the test is NR2B-subtype NMDA receptors (Rattus norvegicus (Rat), UniProt P35439+Q00960). In words: Radioligand binding assay (3H Ro 25-6981 competition, forebrain membranes). The note with it: 3H Ro 25-6981 (4 nM), read-out: NR2B Binding Ki. How it is done: Radioligand Binding Assay. […] Buchy D; Klingelschmidt A; Messer J; Bleuel Z; Kemp J A; Richards J G. […] Thawed brains were homogenized using a Dounce homogenizer and centrifuged at 48000×g for 20 min. The pellet was resuspended in cold buffer and homogenized again using a Dounce homogenizer. […] After incubation for 1 hr at room temperature, the membrane bound radioligand was harvested on to GF/B filter plates (treated with 0.5% PEI for 1 hr at room temperature). The filter plates were dried at 50° C. for 20 mins, incubated with microscint 20 for 10 minutes and finally, the counts were read on TopCount (Perkin Elmer). […] CPM values were converted to % inhibition and the concentration response curves were plotted using custom made software. Each experiment was repeated at least twice to obtain the final binding Ki values for experimental compounds.
Sequence of NR2B-subtype NMDA receptors (Q00960 27-1482, other chains not shown): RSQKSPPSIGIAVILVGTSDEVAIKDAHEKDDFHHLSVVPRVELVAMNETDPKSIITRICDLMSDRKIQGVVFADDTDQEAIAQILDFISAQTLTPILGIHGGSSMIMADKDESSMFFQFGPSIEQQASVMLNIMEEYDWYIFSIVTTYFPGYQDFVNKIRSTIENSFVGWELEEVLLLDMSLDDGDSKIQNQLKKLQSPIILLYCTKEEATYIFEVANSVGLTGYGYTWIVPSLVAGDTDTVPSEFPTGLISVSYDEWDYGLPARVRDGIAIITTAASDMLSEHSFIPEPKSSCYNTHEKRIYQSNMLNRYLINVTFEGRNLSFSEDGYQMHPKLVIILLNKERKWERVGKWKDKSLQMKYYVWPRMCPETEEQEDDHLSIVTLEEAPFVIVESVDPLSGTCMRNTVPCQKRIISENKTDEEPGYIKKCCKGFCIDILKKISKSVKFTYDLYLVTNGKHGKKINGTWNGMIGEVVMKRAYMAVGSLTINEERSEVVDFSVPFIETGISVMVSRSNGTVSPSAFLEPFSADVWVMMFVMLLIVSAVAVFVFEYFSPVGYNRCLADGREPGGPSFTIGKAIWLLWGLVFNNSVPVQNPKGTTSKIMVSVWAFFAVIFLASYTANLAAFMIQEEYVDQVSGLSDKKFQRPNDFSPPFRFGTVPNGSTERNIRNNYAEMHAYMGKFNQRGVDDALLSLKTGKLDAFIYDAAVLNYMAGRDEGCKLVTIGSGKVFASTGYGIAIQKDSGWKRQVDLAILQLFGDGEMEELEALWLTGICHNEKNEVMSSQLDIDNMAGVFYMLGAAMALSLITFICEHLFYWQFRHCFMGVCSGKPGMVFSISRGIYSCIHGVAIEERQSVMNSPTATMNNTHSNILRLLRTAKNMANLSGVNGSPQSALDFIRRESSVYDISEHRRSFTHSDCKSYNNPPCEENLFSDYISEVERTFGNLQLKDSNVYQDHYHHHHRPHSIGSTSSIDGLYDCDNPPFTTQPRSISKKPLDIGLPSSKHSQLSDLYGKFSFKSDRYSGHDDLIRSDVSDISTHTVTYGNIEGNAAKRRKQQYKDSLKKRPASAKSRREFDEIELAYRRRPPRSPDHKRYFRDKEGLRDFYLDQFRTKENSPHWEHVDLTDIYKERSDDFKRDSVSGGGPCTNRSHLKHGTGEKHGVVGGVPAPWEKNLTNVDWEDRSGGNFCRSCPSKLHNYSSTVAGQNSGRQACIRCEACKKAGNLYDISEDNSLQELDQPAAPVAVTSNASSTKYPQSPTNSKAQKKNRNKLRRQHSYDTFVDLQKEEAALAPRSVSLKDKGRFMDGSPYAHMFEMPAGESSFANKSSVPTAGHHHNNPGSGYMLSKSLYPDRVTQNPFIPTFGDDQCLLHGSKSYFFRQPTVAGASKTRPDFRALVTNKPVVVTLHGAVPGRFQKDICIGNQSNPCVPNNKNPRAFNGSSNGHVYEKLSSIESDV
What is called Ki is a dissociation constant, usually derived from enzyme kinetics or from competition with a known ligand. Turning to `C[C@@H](c1ccccc1)N1CCC(N2CCC(c3ccc(O)cc3)CC2)C1=O` (stereo partly drawn) [Example 32, 3-(4-(4-Hydroxyphenyl)piperidin-1-yl)-1-((S)-1-phenylethyl)pyrrolidin-2-one], the Ki was 100 nM.
Take `Cc1ccc(CN2CCC(N3CC(c4ccc(O)cc4)C3)C2=O)cc1F` (centres unmarked) [Example 20, 1-(3-Fluoro-4-methylbenzyl)-3-(3-(4-hydroxyphenyl)azetidin-1-yl)pyrrolidin-2-one]: the Ki turned out to be 43 nM.
As for `Cc1ccccc1CN1CCC(N2CCC(c3ccc(O)cc3)C(F)(F)C2)C1=O` (centres unmarked) [Example 103, 3-(3,3-Difluoro-4-(4-hydroxyphenyl)piperidin-1-yl)-1-(2-methylbenzyl)pyrrolidin-2-one], the figure is 81 nM.
As for `O=C1[C@@H](N2CC[C@@H](c3ccc(O)cc3)[C@H](F)C2)CCN1c1ccc(OC(F)F)c(Cl)c1` [Example 62, (S)-1-(3-Chloro-4-(difluoromethoxy)phenyl)-3-((3S,4S)-3-fluoro-4-(4-hydroxyphenyl)-piperidin-1-yl)pyrrolidin-2-one], the Ki is 6.7 nM.
Under `C[C@@H](c1ccc(F)cc1)N1CC[C@@H](N2CC[C@@H](c3ccc(O)cc3)[C@H](F)C2)C1=O` [Example 50, P-4, (R)-3-((3S,4S)-3-fluoro-4-(4-hydroxyphenyl)piperidin-1-yl)-1-((S)-1-(4-fluorophenyl)-ethyl)pyrrolidin-2-one] stands 1300 nM; under `O=C1[C@@H](N2CCC(c3ccc(O)cc3)C(F)(F)C2)CCN1Cc1ccc(Cl)cc1` (stereo partly drawn) [Example 95, P-1, (3S)-1-(4-Chlorobenzyl)-3-(3,3-difluoro-4-(4-hydroxyphenyl)piperidin-1-yl)pyrrolidin-2-one], 54 nM.
With `O=C1C(N2CCC(c3ccc(O)cc3)C(F)(F)C2)CCN1c1ccc(OC(F)F)c(Cl)c1` (centres unmarked) [Example 90, 1-(3-Chloro-4-(difluoromethoxy)phenyl)-3-(3,3-difluoro-4-(4-hydroxyphenyl)piperidin-1-yl)pyrrolidin-2-one], the inhibition constant (Ki) was found to be 77 nM.
As for `O=C1C(N2CCC(c3ccc(O)cc3)CC2)CCCN1Cc1ccccc1` (single isomer, unassigned) [Example 41a, 1′-Benzyl-4-(4-hydroxyphenyl)-[1,3′-bipiperidin]-2′-one], the figure is 990 nM; as for `O=C1[C@H](N2CC[C@@H](c3ccc(O)cc3)[C@H](F)C2)CCN1Cc1ccc(C(F)(F)F)cc1` [Example 72, (R)-3-((3S,4S)-3-Fluoro-4-(4-hydroxyphenyl)piperidin-1-yl)-1-(4-(trifluoromethyl)benzyl)-pyrrolidin-2-one], 6 nM; as for `O=C1C(N2CC[C@H](c3ccc(O)cc3)[C@@H](F)C2)CCN1Cc1ccc(Cl)c(Cl)c1` (stereo partly drawn) [Example 86, 1-(3,4-Dichlorobenzyl)-3-((3R,4R)-3-fluoro-4-(4-hydroxyphenyl)-piperidin-1-yl)pyrrolidin-2-one], 78 nM.
Under `Cc1ccc(CN2CCC(N3CC(c4ccc(O)cc4)C3)C2=O)cc1` (centres unmarked) [Example 27, 3-(3-(4-Hydroxyphenyl)azetidin-1-yl)-1-(4-methylbenzyl)pyrrolidin-2-one] stands 20 nM; under `O=C1C(N2CC(c3ccc(O)cc3)C2)CCN1Cc1ccccc1` (centres unmarked) [Example 16, 1-Benzyl-3-(3-(4-hydroxyphenyl)azetidin-1-yl)pyrrolidin-2-one], 560 nM; under `O=C1C(N2CCC(c3ccc(O)cc3)CC2)CCCN1Cc1ccccc1` (single isomer, unassigned) [Example 41b, 1′-Benzyl-4-(4-hydroxyphenyl)-[1,3′-bipiperidin]-2′-one], 200 nM.
As for `Cc1ccc(CN2CC[C@H](N3CC(c4ccc(O)cc4)C3)C2=O)cc1F` [Example 21b, (S)-1-(3-Fluoro-4-methylbenzyl)-3-(3-(4-hydroxyphenyl)azetidin-1-yl)pyrrolidin-2-one], the figure is 410 nM.
Consider `Cc1ccc(N2CC[C@@H](N3CC[C@H](c4ccc(O)cc4)[C@@H](F)C3)C2=O)cc1F` [Example 49, P-2, (R)-3-((3R,4R)-3-fluoro-4-(4-hydroxyphenyl)piperidin-1-yl)-1-(3-fluoro-4-methylphenyl)pyrrolidin-2-one], for which the inhibitory constant (Ki) amounted to 73 nM.
As for `O=C1C(N2CCC(c3ccc(O)c(F)c3)CC2)CCN1Cc1ccccc1` (centres unmarked) [Example 30, 1-Benzyl-3-(4-(3-fluoro-4-hydroxyphenyl)piperidin-1-yl)pyrrolidin-2-one], the figure is 4.7 nM; as for `O=C1C(N2CC[C@@H](c3ccc(O)cc3)[C@H](F)C2)CCN1Cc1ccc(F)c(F)c1` (stereo partly drawn) [Example 69, 1-(3,4-Difluorobenzyl)-3-((3S,4S)-3-fluoro-4-(4-hydroxyphenyl)piperidin-1-yl)pyrrolidin-2-one], 34 nM; as for `O=C1[C@H](N2CC[C@@H](c3ccc(O)cc3)[C@H](F)C2)CCN1Cc1ccccc1` [Example 58, (R)-1-Benzyl-3-((3S,4S)-3-fluoro-4-(4-hydroxyphenyl)piperidin-1-yl)pyrrolidin-2-one], 8.7 nM.
As for `O=C1C(N2CCC(c3ccc(O)cc3)CC2)CCN1Cc1ccccc1` (centres unmarked) [Example 12, 1-Benzyl-3-(4-(4-hydroxyphenyl)piperidin-1-yl)pyrrolidin-2-one], the figure is 4 nM.
Regarding `O=C1[C@H](N2CC[C@@H](c3ccc(O)cc3)[C@H](F)C2)CCN1Cc1ccc(F)cc1` [Example 48, P-3], the inhibition constant (Ki) is 11 nM.
As for `Cc1ccc(CN2CCC(N3CCC(c4ccc(O)cc4)CC3)C2=O)cc1F` (centres unmarked) [Example 19, 1-(3-Fluoro-4-methylbenzyl)-3-(4-(4-hydroxyphenyl)piperidin-1-yl)pyrrolidin-2-one], the figure is 3.9 nM; as for `Cc1ccc(N2CC[C@H](N3CC[C@H](c4ccc(O)cc4)[C@@H](F)C3)C2=O)cc1F` [Example 49, P-1, (S)-3-((3R,4R)-3-fluoro-4-(4-hydroxyphenyl)piperidin-1-yl)-1-(3-fluoro-4-methylphenyl)pyrrolidin-2-one], 420 nM.
As for `O=C1[C@@H](N2CC[C@H](c3ccc(O)cc3)[C@@H](F)C2)CCN1Cc1ccc(Cl)cc1` [Example 80, (S)-1-(4-Chlorobenzyl)-3-((3R,4R)-3-fluoro-4-(4-hydroxyphenyl)piperidin-1-yl)pyrrolidin-2-one], the Ki was 560 nM.
For the compound `O=C1[C@@H](N2CCC(c3ccc(O)cc3)CC2)CCN1Cc1ccc(Cl)cc1` [Example 18a, (S)-1-(4-Chlorobenzyl)-3-(4-(4-hydroxyphenyl)piperidin-1-yl)pyrrolidin-2-one], the Ki came to 170 nM.
As for `C[C@@H](c1ccc(F)cc1)N1CC[C@H](N2CC[C@H](c3ccc(O)cc3)[C@@H](F)C2)C1=O` [Example 50, P-1, (S)-3-((3R,4R)-3-Fluoro-4-(4-hydroxyphenyl)piperidin-1-yl)-1-((S)-1-(4-fluorophenyl)-ethyl)pyrrolidin-2-one], the figure is not below 5000 nM.
Turning to `O=C1[C@@H](N2CC[C@@H](c3ccc(O)cc3)[C@H](F)C2)CCN1Cc1ccc(Cl)c(F)c1` [Example 66, (S)-1-(4-Chloro-3-fluorobenzyl)-3-((3S,4S)-3-fluoro-4-(4-hydroxyphenyl)piperidin-1-yl)pyrrolidin-2-one], the Ki came to 1500 nM.
As for `O=C1[C@H](N2CCC(c3ccc(O)cc3)CC2)CCN1Cc1ccc(Cl)cc1` [Example 18b, (R)-1-(4-Chlorobenzyl)-3-(4-(4-hydroxyphenyl)piperidin-1-yl)pyrrolidin-2-one], the figure is 1.5 nM; as for `O=C1[C@H](N2CC[C@@H](c3ccc(O)cc3)[C@H](F)C2)CCN1Cc1ccc(Cl)cc1` [Example 65, (R)-1-(4-Chlorobenzyl)-3-((3S,4S)-3-fluoro-4-(4-hydroxyphenyl)piperidin-1-yl)pyrrolidin-2-one], 3.6 nM; as for `O=C1C(N2CC[C@@H](c3ccc(O)cc3)[C@H](F)C2)CCN1Cc1ccc(F)c(Cl)c1` (stereo partly drawn) [Example 73, 1-(3-Chloro-4-fluorobenzyl)-3-((3S,4S)-3-fluoro-4-(4-hydroxyphenyl)piperidin-1-yl)pyrrolidin-2-one], 330 nM.
`O=C1C(N2CCC(c3ccc(O)cc3)CC2)CCN1Cc1ccc(Cl)c(F)c1` (centres unmarked) [Example 15, 1-(4-Chloro-3-fluorobenzyl)-3-(4-(4-hydroxyphenyl)piperidin-1-yl)pyrrolidin-2-one]: the inhibition constant (Ki) turned out to be 12 nM.
In the case of `O=C1C(N2CCC(c3ccc(O)cc3)C(O)C2)CCN1Cc1ccc(F)cc1` (single isomer, unassigned) [Example 9b, 1-(4-Fluorobenzyl)-3-(3-hydroxy-4-(4-hydroxyphenyl)-piperidin-1-yl)pyrrolidin-2-one], the inhibition constant Ki was found to be 1400 nM.
`O=C1C(N2CCC(c3ccc(O)cc3)C(F)(F)C2)CCN1Cc1ccccc1` (single isomer, unassigned) [Example 91, P-1, 1-Benzyl-3-(3,3-difluoro-4-(4-hydroxyphenyl)piperidin-1-yl)pyrrolidin-2-one]: the Ki is 76 nM.
On to `Cc1cccc(CN2CCC(N3CCC(c4ccc(O)cc4)C(F)(F)C3)C2=O)c1` (centres unmarked) [Example 104, 3-(3,3-Difluoro-4-(4-hydroxyphenyl)piperidin-1-yl)-1-(3-methylbenzyl)pyrrolidin-2-one], for which the Ki amounted to 130 nM.
For `O=C1C(N2CCC(c3ccc(O)cc3)CC2)CCCN1Cc1ccccc1` (centres unmarked) [Example 40, 1′-Benzyl-4-(4-hydroxyphenyl)-[1,3′-bipiperidin]-2′-one], the inhibition constant Ki worked out at 480 nM.
Under `O=C1[C@H](N2CCC(c3ccc(O)cc3)C(F)(F)C2)CCN1c1ccc(OC(F)F)c(Cl)c1` (stereo partly drawn) [Example 101, P-2, (3R)-1-(3-Chloro-4-(difluoromethoxy)phenyl)-3-(3,3-difluoro-4-(4-hydroxyphenyl)-piperidin-1-yl)pyrrolidin-2-one] stands 11 nM.

Source of the values: patent US9221796B2, “Selective NR2B antagonists” (BRISTOL-MYERS SQUIBB COMPANY, priority 2014, dated 2015).
